Data from patent US11976062B2, “Benzisoxazole compound” (OSAKA UNIVERSITY, priority 2018, dated 2024).

Legend:
[1] = tested on: α-SMA expression induced by TGFβ1 in dermal fibroblasts; experiment: Fibrosis inhibition evaluation 2: immunofluorescent staining of α-SMA in dermal fibroblasts; assay type: cell-based, mice; settings: 10 μM, TGFβ1 10 ng/ml, 48 hours, FIG. 7
Procedure: (§1) In the same manner as in Test Example 5, dermal fibroblasts were isolated from mice, and sterilized cover glass (diameter: 12 mm) was placed in a 12-well plate. On the cover glass, 2.5×10^5 cells were seeded and grown. After 24 hours, the medium was replaced with a medium free of fetal bovine serum, and the cells were cultured for another 24 hours. Separately, cardiac fibroblasts were isolated from 1 to 2-day-old rats and treated in the same manner as for the dermal fibroblasts. Thereafter, 10 ng/ml TGFβ1 was added to the dermal fibroblasts, and 2 ng/ml TGFβ2 was added to the cardiac fibroblasts, followed by culturing the cells for 48 hours. At the same time as TGFβ was added, 10 μM of a test compound (compound 011), 10 μM of Pyr 2 (conventional inhibitor), or DMSO (solvent control) was also added. Separately, cultured cells to which TGFβ-free phosphate buffered saline (PBS) was added were also prepared. […] After blocking with 1% bovine serum albumin, α-SMA was detected using anti-α-SMA antibody (Sigma) as the primary antibody and anti-mouse IgG antibody (Molecular Probes) fused with Alexa 488 as the secondary antibody, and an image was acquired using a fluorescence microscope (Keyence) with a 20× objective lens. The average fluorescence brightness (fluorescence intensity/pixel) per cell area was calculated and analyzed using Image J software.

[2] = tested on: dermal fibroblasts; experiment: Fibrosis inhibition evaluation 1: cell morphology observation of dermal fibroblasts; assay type: cell-based, mice; settings: dermal fibroblasts cultured 48 hours with TGFβ1
[3] = tested on: α-SMA expression induced by TGFβ2 in cardiac fibroblasts; experiment: Fibrosis inhibition evaluation 2: immunofluorescent staining of α-SMA in cardiac fibroblasts; assay type: cell-based, rats; settings: 10 μM, TGFβ2 2 ng/ml, 48 hours, FIG. 8
Procedure: as §1

[4] = tested on: α-SMA expression induced by TGFβ1 in dermal fibroblasts; experiment: Fibrosis inhibition evaluation 1: western blotting of α-SMA in dermal fibroblasts; assay type: cell-based, mice; settings: compound 011 0.1, 1, 10 μM (especially 10 μM); Pyr 2 10 μM; TGFβ1 10 ng/ml, 48 hours
Procedure: The expression of α-smooth muscle actin (α-SMA) in fibroblasts was evaluated by western blotting. Dermal fibroblasts were isolated from 1 to 3-day-old mice, and 2.5×10^5 cells were seeded in a 12-well plate. After 24 hours, the medium was replaced with a medium free of fetal bovine serum, and the cells were cultured for another 24 hours. Thereafter, 10 ng/ml of transforming growth factor β1 (TGFβ1) was added, and the cells were cultured for 48 hours. At the same time as TGFβ1 was added, a test compound (compound 011) of a predetermined concentration (0.1 μM, 1 μM, 10 μM) and 10 μM of Pyr 2 or DMSO (solvent control) were also added. […] The cultured cells were dissolved in a lysis buffer (140 mM NaCl, 20 mM Tris-HCl pH 7.8, 1% Triton-X100, 0.05% sodium deoxycholate, 0.1% SDS, 2 mM EDTA, proteinase inhibitor cocktail), and separated by SDS-PAGE, followed by detecting α-SMA using anti-α-SMA antibody (Sigma) as the primary antibody and anti-mouse IgG antibody (cell signaling) fused with horse radish peroxidase as the secondary antibody.

[5] = tested on: renal interstitial fibrosis caused by unilateral ureteral obstruction; settings: mice; cited from earlier work

For `Cc1nnsc1C(=O)Nc1ccc(-n2nc(C(F)(F)F)cc2C(F)(F)F)cc1` [Pyr 2, reference compound], the “expression of α-SMA induced by TGFβ (immunofluorescent staining)” value [1] was “almost completely suppressed the expression of α-SMA”, the “cell morphology / cell damage by microscopic observation” value [2] was “cell elongation” and the “expression of α-SMA induced by TGFβ (immunofluorescent staining)” value [3] was “almost completely suppressed the expression of α-SMA”. The “expression of α-SMA induced by TGFβ1 (western blotting)” value [4] was “lighter coloration of the α-SMA antibody compared with the control” and the “suppression of renal interstitial fibrosis caused by unilateral ureteral obstruction” value [5] was “suppresses renal interstitial fibrosis caused by unilateral ureteral obstruction”.
